Assay results taken from ChEMBL document CHEMBL1201861, “Genomics of Drug Sensitity in Cancer screening data, Wellcome Trust Sanger Institute”.

Test system: MS-1
Test: cells
Type: functional, cell-based, Homo sapiens
Details: Homo sapiens, MS-1
Description: SANGER: Inhibition of human MS-1 cell growth in a cell viability assay.

**Q.** `OC[C@H](Cc1ccccc1)Nc1nc(Oc2ccc3c(c2)CCC3)nc2c1ncn2Cc1ccc(-c2ccccc2)cc1` was tested. Which IC50 did it give?
**A.** > 10.2 µM

Test system: NB13;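 note: cell viability readout measuring growth inhibition of human NB13 cells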
Test: cells
Type: functional, cell-based, Homo sapiens
Details: Homo sapiens, NB13
Description: SANGER: Inhibition of human NB13 cell growth in a cell viability assay.

**Q.** `OC[C@H](Cc1ccccc1)Nc1nc(Oc2ccc3c(c2)CCC3)nc2c1ncn2Cc1ccc(-c2ccccc2)cc1` was tested. Which IC50 did it give?
**A.** 8.09 µM

Test system: NB69;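 note: growth inhibition of NB69 cells, determined by a cell viability assay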
Test: cells
Type: functional, cell-based, Homo sapiens
Details: Homo sapiens, NB69
Description: SANGER: Inhibition of human NB69 cell growth in a cell viability assay.

**Q.** `OC[C@H](Cc1ccccc1)Nc1nc(Oc2ccc3c(c2)CCC3)nc2c1ncn2Cc1ccc(-c2ccccc2)cc1` was tested. Which IC50 did it give?
**A.** > 10.2 µM

Test system: NCI-H209;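 note: growth inhibition of human NCI-H209 cells, measured by a cell viability assay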
Test: cells
Type: functional, cell-based, Homo sapiens
Details: Homo sapiens, NCI-H209
Description: SANGER: Inhibition of human NCI-H209 cell growth in a cell viability assay.

**Q.** How did the IC50 turn out when `OC[C@H](Cc1ccccc1)Nc1nc(Oc2ccc3c(c2)CCC3)nc2c1ncn2Cc1ccc(-c2ccccc2)cc1` was run?
**A.** > 10.2 µM

Test system: NCI-H82;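 note: growth inhibition of NCI-H82 cells, measured with a cell viability readout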
Test: cells
Type: functional, cell-based, Homo sapiens
Details: Homo sapiens, NCI-H82
Description: SANGER: Inhibition of human NCI-H82 cell growth in a cell viability assay.

**Q.** How did the IC50 turn out when `OC[C@H](Cc1ccccc1)Nc1nc(Oc2ccc3c(c2)CCC3)nc2c1ncn2Cc1ccc(-c2ccccc2)cc1` was run?
**A.** > 10.2 µM

Test system: NMC-G1;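 note: growth inhibition of the NMC-G1 cell line, measured with a cell viability read-out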
Test: cells
Type: functional, cell-based, Homo sapiens
Details: Homo sapiens, NMC-G1
Description: SANGER: Inhibition of human NMC-G1 cell growth in a cell viability assay.

**Q.** With `OC[C@H](Cc1ccccc1)Nc1nc(Oc2ccc3c(c2)CCC3)nc2c1ncn2Cc1ccc(-c2ccccc2)cc1` as the compound, how does the IC50 read?
**A.** > 10.2 µM

Test system: NTERA-2-cl-D1;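 note: inhibition of cell growth, measured with a cell viability assay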
Test: cells
Type: functional, cell-based, Homo sapiens
Details: Homo sapiens, NTERA-2-cl-D1
Description: SANGER: Inhibition of human NTERA-S-cl-D1 cell growth in a cell viability assay.

**Q.** For `OC[C@H](Cc1ccccc1)Nc1nc(Oc2ccc3c(c2)CCC3)nc2c1ncn2Cc1ccc(-c2ccccc2)cc1`, which IC50 is on record?
**A.** > 10.2 µM

Test system: Ramos-2G6-4C10;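 note: growth inhibition of the cell line, measured by a cell viability read-out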
Test: cells
Type: functional, cell-based, Homo sapiens
Details: Homo sapiens, Ramos-2G6-4C10
Description: SANGER: Inhibition of human Ramos-2G6-4C10 cell growth in a cell viability assay.

**Q.** Which IC50 does the source give for `OC[C@H](Cc1ccccc1)Nc1nc(Oc2ccc3c(c2)CCC3)nc2c1ncn2Cc1ccc(-c2ccccc2)cc1` here?
**A.** 7.65 µM

Test system: SF-539;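 note: Read-out is a cell viability assay, with IC50 reflecting inhibition of cell growth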
Test: cells
Type: functional, cell-based, Homo sapiens
Details: Homo sapiens, SF-539
Description: SANGER: Inhibition of human SF539 cell growth in a cell viability assay.

**Q.** How did the IC50 turn out when `OC[C@H](Cc1ccccc1)Nc1nc(Oc2ccc3c(c2)CCC3)nc2c1ncn2Cc1ccc(-c2ccccc2)cc1` was run?
**A.** > 10.2 µM

Test system: SHP77;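 note: growth inhibition of human SHP-77 cells measured by a cell viability assay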
Test: cells
Type: functional, cell-based, Homo sapiens, SHP-77
Details: Homo sapiens, SHP77
Description: SANGER: Inhibition of human SHP-77 cell growth in a cell viability assay.

**Q.** `OC[C@H](Cc1ccccc1)Nc1nc(Oc2ccc3c(c2)CCC3)nc2c1ncn2Cc1ccc(-c2ccccc2)cc1` was tested. Which IC50 did it give?
**A.** > 10.2 µM

Test system: SJSA-1;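 note: growth inhibition of human SJSA-1 cells, read out through a cell viability measurement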
Test: cells
Type: functional, cell-based, Homo sapiens
Details: Homo sapiens, SJSA-1
Description: SANGER: Inhibition of human SJSA-1 cell growth in a cell viability assay.

**Q.** `OC[C@H](Cc1ccccc1)Nc1nc(Oc2ccc3c(c2)CCC3)nc2c1ncn2Cc1ccc(-c2ccccc2)cc1` was tested. Which IC50 did it give?
**A.** 2.56 µM

Test system: SK-LMS-1;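 note: growth inhibition of human SK-LMS-1 cells, read out with a cell viability assay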
Test: cells
Type: functional, cell-based, Homo sapiens
Details: Homo sapiens, SK-LMS-1
Description: SANGER: Inhibition of human SK-LMS-1 cell growth in a cell viability assay.

**Q.** Which IC50 does the source give for `OC[C@H](Cc1ccccc1)Nc1nc(Oc2ccc3c(c2)CCC3)nc2c1ncn2Cc1ccc(-c2ccccc2)cc1` here?
**A.** 2.94 µM

Test system: SNB-75;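 note: cell viability assay measuring growth inhibition of human SNB-75 cells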
Test: cells
Type: functional, cell-based, Homo sapiens
Details: Homo sapiens, SNB-75
Description: SANGER: Inhibition of human SNB75 cell growth in a cell viability assay.

**Q.** `OC[C@H](Cc1ccccc1)Nc1nc(Oc2ccc3c(c2)CCC3)nc2c1ncn2Cc1ccc(-c2ccccc2)cc1` was tested. Which IC50 did it give?
**A.** > 10.2 µM

Test system: SW684;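 note: growth inhibition of human SW684 cells, measured by a cell viability assay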
Test: cells
Type: functional, cell-based, Homo sapiens
Details: Homo sapiens, SW684; read-out: IC50
Description: SANGER: Inhibition of human SW684 cell growth in a cell viability assay.

**Q.** With `OC[C@H](Cc1ccccc1)Nc1nc(Oc2ccc3c(c2)CCC3)nc2c1ncn2Cc1ccc(-c2ccccc2)cc1` as the compound, how does the IC50 read?
**A.** 8.52 µM

Test system: SW 954;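 note: growth inhibition of SW954 human cancer cells, read out as cell viability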
Test: cells
Type: functional, cell-based, Homo sapiens
Details: Homo sapiens, SW 954
Description: SANGER: Inhibition of human SW954 cell growth in a cell viability assay.

**Q.** How did the IC50 turn out when `OC[C@H](Cc1ccccc1)Nc1nc(Oc2ccc3c(c2)CCC3)nc2c1ncn2Cc1ccc(-c2ccccc2)cc1` was run?
**A.** > 10.2 µM

Test system: SW982;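 note: growth inhibition of SW982 cells, read out with a cell viability assay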
Test: cells
Type: functional, cell-based
Details: Homo sapiens
Description: SANGER: Inhibition of human SW982 cell growth in a cell viability assay.

**Q.** For `OC[C@H](Cc1ccccc1)Nc1nc(Oc2ccc3c(c2)CCC3)nc2c1ncn2Cc1ccc(-c2ccccc2)cc1`, which IC50 is on record?
**A.** > 10.2 µM

Test system: TE-1;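 note: growth inhibition of the human TE-1 cell line, read out with a cell viability assay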
Test: cells
Type: functional, cell-based, Homo sapiens
Details: Homo sapiens, TE-1
Description: SANGER: Inhibition of human TE-1 cell growth in a cell viability assay.

**Q.** How did the IC50 turn out when `OC[C@H](Cc1ccccc1)Nc1nc(Oc2ccc3c(c2)CCC3)nc2c1ncn2Cc1ccc(-c2ccccc2)cc1` was run?
**A.** > 10.2 µM

Test system: A3-KAW;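 note: growth inhibition of human A3-KAW cells, read out with a cell viability assay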
Test: cells
Type: functional, cell-based, Homo sapiens
Details: Homo sapiens, A3-KAW
Description: SANGER: Inhibition of human A3-KAW cell growth in a cell viability assay.

**Q.** How did the IC50 turn out when `OC[C@H](Cc1ccccc1)Nc1nc(Oc2ccc3c(c2)CCC3)nc2c1ncn2Cc1ccc(-c2ccccc2)cc1` was run?
**A.** 7.38 µM

Test system: A388;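 note: growth inhibition of human A388 cells, read out with a cell viability assay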
Test: cells
Type: functional, cell-based
Details: Homo sapiens
Description: SANGER: Inhibition of human A388 cell growth in a cell viability assay.

**Q.** Which IC50 does the source give for `OC[C@H](Cc1ccccc1)Nc1nc(Oc2ccc3c(c2)CCC3)nc2c1ncn2Cc1ccc(-c2ccccc2)cc1` here?
**A.** > 10.2 µM

Test system: A704;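 note: growth inhibition of human A704 cells, read out with a cell viability assay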
Test: cells
Type: functional, cell-based
Details: Homo sapiens
Description: SANGER: Inhibition of human A704 cell growth in a cell viability assay.

**Q.** Which IC50 does the source give for `OC[C@H](Cc1ccccc1)Nc1nc(Oc2ccc3c(c2)CCC3)nc2c1ncn2Cc1ccc(-c2ccccc2)cc1` here?
**A.** > 10.2 µM

Test system: AM-38;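 note: growth inhibition of AM-38 cells of human origin, read out by a cell viability assay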
Test: cells
Type: functional, cell-based, Homo sapiens
Details: Homo sapiens, AM-38
Description: SANGER: Inhibition of human AM-38 cell growth in a cell viability assay.

**Q.** With `OC[C@H](Cc1ccccc1)Nc1nc(Oc2ccc3c(c2)CCC3)nc2c1ncn2Cc1ccc(-c2ccccc2)cc1` as the compound, how does the IC50 read?
**A.** > 10.2 µM

Test system: Becker;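 note: growth inhibition of Becker cells, read out with a cell viability assay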
Test: cells
Type: functional, cell-based, Homo sapiens
Details: Homo sapiens, Becker
Description: SANGER: Inhibition of human Becker cell growth in a cell viability assay.

**Q.** How did the IC50 turn out when `OC[C@H](Cc1ccccc1)Nc1nc(Oc2ccc3c(c2)CCC3)nc2c1ncn2Cc1ccc(-c2ccccc2)cc1` was run?
**A.** > 10.2 µM

Test system: TE-6;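 note: growth inhibition of TE-6 cells, read out with a cell viability assay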
Test: cells
Type: functional, cell-based, Homo sapiens
Details: Homo sapiens, TE-6
Description: SANGER: Inhibition of human TE-6 cell growth in a cell viability assay.

**Q.** `OC[C@H](Cc1ccccc1)Nc1nc(Oc2ccc3c(c2)CCC3)nc2c1ncn2Cc1ccc(-c2ccccc2)cc1` was tested. Which IC50 did it give?
**A.** > 10.2 µM

Test system: TE-9;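 note: cell growth inhibition, measured with a cell viability readout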
Test: cells
Type: functional, cell-based, Homo sapiens
Details: Homo sapiens, TE-9
Description: SANGER: Inhibition of human TE-9 cell growth in a cell viability assay.

**Q.** With `OC[C@H](Cc1ccccc1)Nc1nc(Oc2ccc3c(c2)CCC3)nc2c1ncn2Cc1ccc(-c2ccccc2)cc1` as the compound, how does the IC50 read?
**A.** > 10.2 µM

Test system: TGW;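 note: growth inhibition of human TGW cells, read out with a cell viability assay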
Test: cells
Type: functional, cell-based, Homo sapiens
Details: Homo sapiens, TGW
Description: SANGER: Inhibition of human TGW cell growth in a cell viability assay.

**Q.** With `OC[C@H](Cc1ccccc1)Nc1nc(Oc2ccc3c(c2)CCC3)nc2c1ncn2Cc1ccc(-c2ccccc2)cc1` as the compound, how does the IC50 read?
**A.** > 10.2 µM

Test system: TK-10;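 note: growth inhibition of TK-10 cells, read out in a cell viability assay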
Test: cells
Type: functional, cell-based, Homo sapiens
Details: Homo sapiens, TK-10
Description: SANGER: Inhibition of human TK10 cell growth in a cell viability assay.

**Q.** `OC[C@H](Cc1ccccc1)Nc1nc(Oc2ccc3c(c2)CCC3)nc2c1ncn2Cc1ccc(-c2ccccc2)cc1` was tested. Which IC50 did it give?
**A.** > 10.2 µM
